Measured values from PMC8989888, “Development of optimized drug-like small molecule inhibitors of the SARS-CoV-2 3CL protease for treatment of COVID-19” (Nature Communications, 2022).
Several values for one entry are separate records, joined by “and”; a condition that tells them apart may be missing. Equal entries are not always repeated. Where two headings read alike, the source gives them in different places.

Tests used:
SARS-CoV-2 3CL protease [1] = target: T1, SARS-CoV-2 3CL protease (Severe acute respiratory syndrome coronavirus 2, UniProt P0DTD1); test: biochemical
SARS-CoV-2 3CL protease [2] = target: T1, SARS-CoV-2 3CL protease; test: biochemical; remark: listed apart in the source
SARS-CoV-2 = test: microbe, parasite or virus in culture; assay type: cell-based
SARS-CoV-2 3CL protease [3] = target: T1, SARS-CoV-2 3CL protease; assay type: biochemical; design: Avg: unit not given here; conditions: for Inhibition at 10 µM: 10 µM compound; for Inhibition at 100 µM: 100 µM compound; for Avg: mean response (inhibition) of dose-response curve; for IC50: dose-response curve of fragment hit; for IC50 / LogIC50: Figure S1 and S2; for LogIC50: log10 of IC50 in µM
[4] = 0.2 µM protease with 50 µM tested compound, replicates
[5] = 200 nM protease, read-out: IC50

Structure (SMILES) | Normalized SARS-CoV-2 3CL protease activity (SARS-CoV-2 3CL protease [1]; [4]) | Inhibition at 10 µM (SARS-CoV-2 3CL protease [3]) [%] | Inhibition at 100 µM (SARS-CoV-2 3CL protease [3]) [%] | Avg (SARS-CoV-2 3CL protease [3]; Conc 10 µM) | Avg (SARS-CoV-2 3CL protease [3]; Conc 15 µM) | Avg (SARS-CoV-2 3CL protease [3]; Conc 20 µM) | Avg (SARS-CoV-2 3CL protease [3]; Conc 50 µM) | Avg (SARS-CoV-2 3CL protease [3]; Conc 100 µM) | Avg (SARS-CoV-2 3CL protease [3]; Conc 200 µM) | IC50 (SARS-CoV-2 3CL protease [3]) [µM] | LogIC50 (SARS-CoV-2 3CL protease [3]) | also measured
O=S(=O)(NCc1ccncn1)c1ccccc1 [AZVIII-49F] | 1.058 and 1.081 and 1.099 |  |  |  |  |  |  |  |  |  |  | IC50 (SARS-CoV-2 3CL protease [1]; [5]): > 50 µM
O=CCN(Cc1ccccc1)S(=O)(=O)c1ccccc1 [AZVIII-57D] | 1.196 and 1.186 and 0.9817 |  |  |  |  |  |  |  |  |  |  | IC50 (SARS-CoV-2 3CL protease [1]; [5]): > 50 µM
COc1ccc(S(=O)(=O)N(CC=O)Cc2ccccc2)cc1 [AZVIII-57G] | 1.117 (2×) and 1.175 (2×) and 1.168 (2×) |  |  |  |  |  |  |  |  |  |  | IC50 (SARS-CoV-2 3CL protease [1]; [5]): > 50 µM
O=C(N[C@@H](CC1CC1)C(=O)N[C@@H](C[C@@H]1CCNC1=O)C(O)S(=O)(=O)O)OCc1ccccc1 (stereo partly shown) [NK01-14] |  |  |  |  |  |  |  |  |  |  |  | observed inactivation rate vs compound concentration (Figure S19, replicate values) (SARS-CoV-2 3CL protease [2]): 0.0144 and -0.00118 and 0.0245 and 0.0068 and 0.0252 and 0.0272 and 0.0287 and 0.0225 and 0.0192 and -0.00612 and 0.0023 and 0.0187; kinact/KI (SARS-CoV-2 3CL protease [2]; read-out: SARS-CoV-2 3CLpro kinact/KI): 71700 M⁻¹ s⁻¹; inhibition of SARS-CoV-2 (Figure s17b dose-response, replicate values) (SARS-CoV-2): 107.44 and 106.681 and 107.657 and 104.164 and 95.5823 and 98.4941 and 57.1014 and 42.1437 and 64.5278 and 21.8135 and 20.6648 and 21.9136 and 20.2988 and 22.5837 and -3.217 and 20.0515 and 23.307 and 7.747 and 3.643 and 5.208 and 12.2626; EC50 (SARS-CoV-2; Severe acute respiratory syndrome coronavirus 2, 24 h, read-out: SARS-CoV-2 Huh-7ACE2 EC50): 0.026 µM; IC50 (SARS-CoV-2 3CL protease [1]; 20 nM protease, read-out: SARS-CoV-2 3CLpro IC50): 0.022 µM; normalized activity, dose-response curve (Figure S16) (SARS-CoV-2 3CL protease [1]; Concentration of inhibitor (nM) 0.19382): 88.3287 and 88.0525; normalized activity, dose-response curve (Figure S16) (SARS-CoV-2 3CL protease [1]; Concentration of inhibitor (nM) 0.49485): 79.1436 and 83.9088; normalized activity, dose-response curve (Figure S16) (SARS-CoV-2 3CL protease [1]; Concentration of inhibitor (nM) 0.79588): 76.0359 and 72.2376; normalized activity, dose-response curve (Figure S16) (SARS-CoV-2 3CL protease [1]; Concentration of inhibitor (nM) 1.09691): 63.3978 and 55.1105; normalized activity, dose-response curve (Figure S16) (SARS-CoV-2 3CL protease [1]; Concentration of inhibitor (nM) 1.39794): 56.2155 and 53.3149; normalized activity, dose-response curve (Figure S16) (SARS-CoV-2 3CL protease [1]; Concentration of inhibitor (nM) 1.69897): 37.1547 and 46.616; normalized activity, dose-response curve (Figure S16) (SARS-CoV-2 3CL protease [1]; Concentration of inhibitor (nM) 2): 24.2403 and 25.2762; normalized activity, dose-response curve (Figure S16) (SARS-CoV-2 3CL protease [1]; Concentration of inhibitor (nM) 2.30103): 7.666 and 9.392; normalized activity, dose-response curve (Figure S16) (SARS-CoV-2 3CL protease [1]; Concentration of inhibitor (nM) -0.10721): 96.8923 and 94.268; normalized activity, dose-response curve (Figure S16) (SARS-CoV-2 3CL protease [1]; Concentration of inhibitor (nM) -0.40824): 109.254 and 100
CSc1ncccc1C#N [NT-1-21] | 1.059 and 1.079 and 0.9766 |  |  |  |  |  |  |  |  |  |  | 
CS(=O)(=O)c1ncccc1C#N [NT-1-24] | 0.9913 and 0.611 and 0.8892 |  |  |  |  |  |  |  |  |  |  | 
CS(=O)(=O)c1nc(C(F)(F)F)ccc1C#N [NT-1-32] |  |  |  |  |  |  |  |  |  |  |  | Normalized SARS-CoV-2 3CL protease activity (SARS-CoV-2 3CL protease [1]): 0.9191 and 0.9056 and 0.7525
N#Cc1ccnc(S)c1 [Z2687203952] |  | 12 | 100 | 11.5 | 33.9 | 67.8 | 111.2 | 107.8 | 106.7 | 17.4 | 1.241 | 
Cc1cnc(=S)[nH]c1 [Z2768165643] |  | 41 | 100 | 41.2 | 59.8 | 69.1 | 106.7 | 109.4 | 108.2 | 13 | 1.114 | 
O=C(CCl)c1ccc(F)c(C(=O)CCl)c1 [Z2768504793] |  | 3 | 63 | 3.4 | 11.1 | 34.1 | 48.5 | 62.9 | 79.1 | 50.2 | 1.7 | 
C=CS(=O)(=O)c1nc2ccccc2s1 [Z3228044564] |  | 73 | 100 | 73.2 | 84.2 | 91.1 | 103.1 | 104 | 112.9 |  |  | 
O=C(CCl)COc1ccc(Cl)cc1 [Z3236282166] |  | 48 | 100 | 47.7 | 63.9 | 86.8 | 98.6 | 103.3 | 106 | 11.5 | 1.059 | 
CN(C)C(=O)c1csc(C(=O)CCl)c1 [Z3244705145] |  | 24 | 89 | 23.6 | 22.7 | 40.5 | 58.7 | 89 | 99.3 | 35.9 | 1.555 | 
